Test results from publication PMC7960626, “Phase I study assessing the mass balance, pharmacokinetics, and excretion of [^14C]-pevonedistat, a NEDD8-activating enzyme inhibitor in patients with advanced solid tumors” (Investigational New Drugs, 2020).
Like-named read-outs stand apart in the source and are kept apart here.

What was measured:
[1] = tested on: human xenograft tumors of activated B-cell (ABC) and germinal center B-cell (GCB) diffuse large B-cell lymphoma (DLBCL); parameters: method as in PMID 20525923; settings: in vivo administration, mice; cited from earlier work
[2] = tested on: tumor cell lines including solid tumors (colon, lung) and hematological malignancies (myeloma, lymphoma); parameters: method as in PMID 19509147, PMID 20525923, PMID 20203261; settings: preclinical studies; cited from earlier work
[3] = tested on: human colon and lung tumor xenograft models; parameters: method as in PMID 19509147; settings: repeated dosing, immunocompromised mice; cited from earlier work
[4] = Whole blood PK and whole blood/plasma partitioning after a single 1-h IV infusion of [^14C]-pevonedistat 25 mg/m^2 (part A); type: in vivo, human; settings: for blood plasma ratio: whole blood and plasma, iv, 25 mg/m^2, single 1-h IV infusion 25 mg/m^2
Text: (§1) This was a two-part (A and B), open-label, multicenter, mass balance, distribution, metabolism, excretion (DME) study in adult patients with advanced solid tumors. […] Patients were required to stay at the part A study site for approximately 8 days or until the discharge criteria were met, with a maximum estimated confinement period of 9–14 days. Upon completion of part A, patients had the option to participate in part B at Medical Center Hungarian Defense Forces, Budapest, Hungary. […] Treatment was administered for 12 cycles or until discontinuation criteria were met.
(§2) Complete urinary and fecal output were collected for analysis of PK (urine) and total radioactivity (urine and feces) throughout the confinement period until discharge criteria were met. Bioanalytical assay methods are shown in the Supplementary Methods. […] In part B, disease assessments were conducted using radiological evaluations (computed tomography [CT] scan or magnetic resonance imaging [MRI], as clinically indicated).
(§3) Non-compartmental analysis using Phoenix™ WinNonlin® version 8.0 (Pharsight Corp., Mountain View, California, USA) was used for estimation of PK parameters for pevonedistat in whole blood, plasma, and urine and for total radioactivity in whole blood, plasma, urine, and feces. The following single-dose PK parameters were derived: maximum plasma concentration (Cmax), area under the concentration–time curve from time 0 to infinity (AUC∞), AUC from time 0 to the last quantifiable concentration (AUC0 − last), terminal disposition phase half-life (t1/2), renal clearance (CLR), clearance (CL), and volume of distribution at steady state (Vss).
(§4) PK data were summarized using descriptive statistics, and the PK and mass balance parameters described in Supplementary Table S1 were calculated by non-compartmental analysis for each individual patient. Safety was assessed in all patients who received at least one dose of pevonedistat, and TEAEs were coded according to the Medical Dictionary for Regulatory Activities (MedDRA), version 20.0. Analysis of efficacy in part B was descriptive; disease response was assessed in all patients who received at least one dose of pevonedistat, had measurable disease (per entry criteria for part B), and had at least one post-baseline disease assessment. Response assessment was done by the investigator using Response Evaluation Criteria in Solid Tumors (RECIST) version 1.1. SAS version 9.4 was used for all statistical analyses. […]
160 All samples were analyzed applying the methods described below:
After vortex mixing for at least 5 sec, the
170 Method for whole blood

advanced solid tumors = assay: Disease response by RECIST version 1.1 (part B); type: in vivo, human; settings: 7 patients evaluable, with carboplatin/paclitaxel or docetaxel
Method: This was a two-part (A and B), open-label, multicenter, mass balance, distribution, metabolism, excretion (DME) study in adult patients with advanced solid tumors. In part A, patients received a single IV infusion of [^14C]-pevonedistat 25 mg/m^2 (containing approximately 60–85 µCi, or 2.22–3.145 MBq, of total radioactivity) at a single center (Duna Medical Center, Budapest, Hungary). Patients were required to stay at the part A study site for approximately 8 days or until the discharge criteria were met, with a maximum estimated confinement period of 9–14 days. Upon completion of part A, patients had the option to participate in part B at Medical Center Hungarian Defense Forces, Budapest, Hungary. In part B, patients received treatment in 3-week cycles with either: pevonedistat 20 mg/m^2 on days 1, 3, and 5 plus carboplatin AUC5 and paclitaxel 175 mg/m^2 on day 1; or pevonedistat 25 mg/m^2 on days 1, 3, and 5 plus docetaxel 75 mg/m^2 on day 1. Treatment was administered for 12 cycles or until discontinuation criteria were met.
Blood samples were collected for total radioactivity and PK assessments in whole blood and plasma at prespecified time points (pre dose [within 1 h before the start of the pevonedistat infusion], end of infusion, then 0.5, 1, 2, 3, 4, 8, 12, 24, 48, 72, 96, 120, 144 and 168 hours post dose). Complete urinary and fecal output were collected for analysis of PK (urine) and total radioactivity (urine and feces) throughout the confinement period until discharge criteria were met. Bioanalytical assay methods are shown in the Supplementary Methods. Safety was assessed by incidence and severity of TEAEs, vital signs, physical examinations, electrocardiograms, and clinical laboratory tests, and toxicities were graded according to the National Cancer Institute Common Terminology Criteria for Adverse Events (NCI CTCAE), version 4.03. […]
PK data were summarized using descriptive statistics, and the PK and mass balance parameters described in Supplementary Table S1 were calculated by non-compartmental analysis for each individual patient. […]

[5] = Plasma PK after a single 1-h IV infusion of [^14C]-pevonedistat 25 mg/m^2 (part A); type: in vivo, human
Text: as §1, §2, §3, §4
160 All samples were analyzed applying the methods described below: […]

[6] = Mass balance: recovery of total radioactivity in urine and feces (part A); type: in vivo, human; settings: post dose; single IV dose 25 mg/m^2
Method: This was a two-part (A and B), open-label, multicenter, mass balance, distribution, metabolism, excretion (DME) study in adult patients with advanced solid tumors. In part A, patients received a single IV infusion of [^14C]-pevonedistat 25 mg/m^2 (containing approximately 60–85 µCi, or 2.22–3.145 MBq, of total radioactivity) at a single center (Duna Medical Center, Budapest, Hungary). Patients were required to stay at the part A study site for approximately 8 days or until the discharge criteria were met, with a maximum estimated confinement period of 9–14 days. […]
The primary objectives of the study were to assess the mass balance (cumulative recovery of total radioactivity in urine and feces) and to characterize the PK of pevonedistat (whole blood, plasma, and urine) and total radioactivity (drug-related material; plasma and whole blood) following a single infusion of [^14C]-pevonedistat 25 mg/m^2 (part A).
Blood samples were collected for total radioactivity and PK assessments in whole blood and plasma at prespecified time points (pre dose [within 1 h before the start of the pevonedistat infusion], end of infusion, then 0.5, 1, 2, 3, 4, 8, 12, 24, 48, 72, 96, 120, 144 and 168 hours post dose). Complete urinary and fecal output were collected for analysis of PK (urine) and total radioactivity (urine and feces) throughout the confinement period until discharge criteria were met. […]

[7] = human, whole blood, single 1-hr IV infusion 25 mg/m^2, geometric mean (CV), N = 7
[8] = human, plasma, single 1-h IV infusion 25 mg/m^2, geometric mean (CV), N = 7

## NS(=O)(=O)OC[C@@H]1C[C@@H](n2ccc3c(N[C@H]4CCc5ccccc54)ncnc32)C[C@@H]1O [Pevonedistat]
[1]
  tumor growth: complete tumor growth inhibition
[2]
  antitumor activity in cell lines: growth inhibition
[3]
  tumor growth: tumor growth inhibition
[4]; based on whole blood CL vs hepatic blood flow
  clearance classification: low clearance drug
[4]; human, mean (SD), N = 7, read-out: Whole blood/plasma AUClast ratio
  blood plasma ratio: 42.2
[4]; human, mean (SD), N = 7, read-out: Whole blood/plasma AUC∞ ratio
  blood plasma ratio: 40.8
[4]; human, mean (SD), N = 7, read-out: Whole blood/plasma Cmax ratio
  blood plasma ratio: 31.9
[4]; [7]
  AUC(0-inf): 58600 ng·h/mL
  AUC(0-t): 58500 ng·h/mL
  Cmax: 6720 ng/mL
  clearance: 13.5 mL/min
[4]; human, whole blood, single 1-hr IV infusion 25 mg/m^2, geometric mean (CV), N = 7, read-out: Vss
  Vd: 9.1 L
[4]; human, whole blood, single 1-hr IV infusion 25 mg/m^2, mean (SD), N = 7
  half-life: 13.9 h
[4]; single dose 25 mg/m^2
  whole blood CL as share of hepatic blood flow: approximately 1%
[4]; whole blood, single 1-h IV infusion 25 mg/m^2, mean
  Exposure ratio (AUC∞) of pevonedistat vs. total drug-related material: 0.44
Advanced solid tumors
  best response of partial response: One
  best response of stable disease: 5 patients
  progressive disease: remaining patient
[5]; human, plasma, iv, 25 mg/m^2
  CL renal: 13.3 mL/min
[5]; [8]
  AUC(0-inf): 1460 ng·h/mL
  AUC(0-t): 1410 ng·h/mL
  Cmax: 218 ng/mL
  clearance: 537 mL/min
[5]; human, plasma, single 1-h IV infusion 25 mg/m^2, geometric mean (CV), N = 7, read-out: Vss
  Vd: 296 L
[5]; human, plasma, single 1-h IV infusion 25 mg/m^2, mean (SD), N = 7
  half-life: 8.4 h
[5]; plasma, single 1-h IV infusion 25 mg/m^2, mean
  Exposure ratio (AUC∞) of pevonedistat vs. total drug-related material: 0.41
[5]; single dose 25 mg/m^2
  CLR as share of pevonedistat total plasma clearance: approximately 2.5%
[5]; single dose 25 mg/m^2, part A
  systemic exposure of unchanged pevonedistat as share of drug-related material: 41%
[6]
  time by which the majority of the radioactivity was recovered: ≤ 96 h
